Measurements published in article PMC9019904, “AD Informer Set: Chemical tools to facilitate Alzheimer's disease drug discovery” (Alzheimer's & Dementia : Translational Research & Clinical …, 2022).
In brackets after ≈: the same amount, converted by molar mass.

Tests used:
[1] = Kinetic solubility in aqueous buffer pH 7.4 by total chemiluminescent nitrogen determination (Analiza); conditions: aqueous buffer, pH 7.4, aqueous buffer, kinetic from dmso stock
[2] = test system: HMC3 (human microglia) cell line; assay: pHrodo-myelin phagocytosis/cell viability high content imaging assay: phagocytosis signal; type: cell-based
Summary of the method: (§1)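 Simultaneous phagocytosis/viability imaging at approximately 22 h after adding pHrodo-myelin. Rising intensity flagged early apoptosis and falling intensity later apoptosis.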

[3] = test system: BV2 (mouse microglia) cell line; assay: as above; type: cell-based
Summary of the method: as §1

[4] = test system: HMC3 (human microglia) cell line; assay: pHrodo-myelin phagocytosis/cell viability high content imaging assay: viability (cell count, nuclear area, nuclear intensity)
Summary of the method: (§2)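 Viability was read by high-content imaging as cell count per well and nuclear intensity per cell, in murine BV2 and human HMC3 microglial lines. Cells received a single 10 μM compound dose for 48 h, including 20 h with pHrodo-myelin. Duplicate means are expressed as % of untreated control.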

[5] = test system: BV2 (mouse microglia) cell line; assay: as above
Summary of the method: as §2

[6] = HMC3, 10 μM, cell count <70% control
[7] = BV2, 10 μM, cell count <70% control

Structure (SMILES) | solubility kinetic [1] [µM] | Inhibition of human microglial phagocytosis at 10 μM (<70% control) ([2]; 10 μM, HMC3) | Inhibition of mouse microglial phagocytosis at 10 μM (<70% control) ([3]; 10 μM, BV2) | Human microglial cytotoxicity at 10 μM (<70% control) ([4]; 10 μM, HMC3) | Mouse microglial cytotoxicity at 10 μM (<70% control) ([5]; 10 μM, BV2) | Inhibition of human microglial phagocytosis at 10 μM (<70% control) ([2]; HMC3, 10 μM) | Stimulation of mouse microglial phagocytosis at 10 μM (>150% control) ([3]; BV2, 10 μM) | Human microglial cytotoxicity at 10 μM (<70% control) ([4]; HMC3, 10 μM) | Mouse microglial cytotoxicity at 10 μM (<70% control) ([5]; BV2, 10 μM) | Inhibition of mouse microglial phagocytosis at 10 μM (<70% control) ([3]; BV2, 10 μM) | Human microglial cytotoxicity at 10 μM (<70% control) [4, 6] | Mouse microglial cytotoxicity at 10 μM (<70% control) [5, 7] | Stimulation of mouse microglial phagocytosis at 10 μM (>150% control) ([3]; 10 μM, BV2)
CSc1ccc2c(c1)c(CCN)c(C)n2Cc1ccc(Cl)cc1Cl.Cl [K149] | 5.7 | Y (The compound was found to inhibit phagocytosis (response threshold: <70% control) when human immortalized microglial cells were dosed at 10 μM (Y: yes)) | Y (The compound was found to inhibit phagocytosis (response threshold: <70% control) when murine immortalized microglial cells were dosed at 10 μM (Y: yes)) | Y (The compound was found to be cytotoxic (cell count threshold: <70% control) when human immortalized microglial cells were dosed at 10 μM (Y: yes)) | Y (The compound was found to be cytotoxic (cell count threshold: <70% control) when murine immortalized microglial cells were dosed at 10 μM (Y: yes)) |  |  |  |  |  |  |  | 
O=C1C=C(NCCc2cc(Br)c(O)c(Br)c2)C(=O)c2ncccc21 [NSC668394] | 18.4 (≈ 8.32 µg/mL) |  |  |  |  | Y (The compound was found to inhibit phagocytosis (response threshold: <70% control) when human immortalized microglial cells were dosed at 10 μM (Y: yes)) | Y (The compound was found to stimulate phagocytosis (response threshold: >150% control) when murine immortalized microglial cells were dosed at 10 μM (Y: yes)) | Y (The compound was found to be cytotoxic (cell count threshold: <70% control) when human immortalized microglial cells were dosed at 10 μM (Y: yes)) | Y (The compound was found to be cytotoxic (cell count threshold: <70% control) when murine immortalized microglial cells were dosed at 10 μM (Y: yes)) |  |  |  | 
C=CC(=O)Nc1cc2c(Nc3ccc(F)c(Cl)c3)ncnc2cc1OCCCN1CCOCC1 [Canertinib] | 11 (≈ 5.35 µg/mL) |  |  |  |  | Y (The compound was found to inhibit phagocytosis (response threshold: <70% control) when human immortalized microglial cells were dosed at 10 μM (Y: yes)) |  | Y (The compound was found to be cytotoxic (cell count threshold: <70% control) when human immortalized microglial cells were dosed at 10 μM (Y: yes)) | Y (The compound was found to be cytotoxic (cell count threshold: <70% control) when murine immortalized microglial cells were dosed at 10 μM (Y: yes)) | Y (The compound was found to inhibit phagocytosis (response threshold: <70% control) when murine immortalized microglial cells were dosed at 10 μM (Y: yes)) |  |  | 
CN(C)CCCOc1c(Br)cc(/C=C/C(=O)NCCCOc2c(Br)cc(CCN(C)C)cc2Br)cc1Br [Psammaplysene A] | 125 (≈ 96.4 µg/mL) | Y (The compound was found to inhibit phagocytosis (response threshold: <70% control) when human immortalized microglial cells were dosed at 10 μM (Y: yes)) | Y (The compound was found to inhibit phagocytosis (response threshold: <70% control) when murine immortalized microglial cells were dosed at 10 μM (Y: yes)) | Y (The compound was found to be cytotoxic (cell count threshold: <70% control) when human immortalized microglial cells were dosed at 10 μM (Y: yes)) | Y (The compound was found to be cytotoxic (cell count threshold: <70% control) when murine immortalized microglial cells were dosed at 10 μM (Y: yes)) |  |  |  |  |  |  |  | 
c1ccc(CNc2nc(NCc3ccccc3)c3ccccc3n2)cc1 [DBeQ] | 1.9 (≈ 0.647 µg/mL) |  |  |  |  | Y (The compound was found to inhibit phagocytosis (response threshold: <70% control) when human immortalized microglial cells were dosed at 10 μM (Y: yes)) |  |  |  | Y (The compound was found to inhibit phagocytosis (response threshold: <70% control) when murine immortalized microglial cells were dosed at 10 μM (Y: yes)) | Y (The compound was found to be cytotoxic (cell count threshold: <70% control) when human immortalized microglial cells were dosed at 10 μM (Y: yes)) | Y (The compound was found to be cytotoxic (cell count threshold: <70% control) when murine immortalized microglial cells were dosed at 10 μM (Y: yes)) | 
O=C(/C=C/c1ccco1)Nc1ncc(Cc2ccccc2)s1 [Compound 1] | < 1.1 | Y (The compound was found to inhibit phagocytosis (response threshold: <70% control) when human immortalized microglial cells were dosed at 10 μM (Y: yes)) | Y (The compound was found to inhibit phagocytosis (response threshold: <70% control) when murine immortalized microglial cells were dosed at 10 μM (Y: yes)) |  | Y (The compound was found to be cytotoxic (cell count threshold: <70% control) when murine immortalized microglial cells were dosed at 10 μM (Y: yes)) |  |  |  |  |  |  |  | 
CC(=O)NCC(=O)N1[C@@H]2CC[C@H]1c1ccc(Nc3ncc(C(F)(F)F)c(NC4CCC4)n3)cc12 [PF-03814735 (MolPort-023-219-160)] | 159 (≈ 75.6 µg/mL) | Y (The compound was found to inhibit phagocytosis (response threshold: <70% control) when human immortalized microglial cells were dosed at 10 μM (Y: yes)) | Y (The compound was found to inhibit phagocytosis (response threshold: <70% control) when murine immortalized microglial cells were dosed at 10 μM (Y: yes)) | Y (The compound was found to be cytotoxic (cell count threshold: <70% control) when human immortalized microglial cells were dosed at 10 μM (Y: yes)) | Y (The compound was found to be cytotoxic (cell count threshold: <70% control) when murine immortalized microglial cells were dosed at 10 μM (Y: yes)) |  |  |  |  |  |  |  | 
CCN1CCN(Cc2ccc(NC(=O)c3ccc(C)c(NC(=O)c4cncc(-c5cccs5)c4)c3)cc2C(F)(F)F)CC1 [ALW-II-41-27] | 3.7 (≈ 2.25 µg/mL) |  |  |  |  | Y (The compound was found to inhibit phagocytosis (response threshold: <70% control) when human immortalized microglial cells were dosed at 10 μM (Y: yes)) |  | Y (The compound was found to be cytotoxic (cell count threshold: <70% control) when human immortalized microglial cells were dosed at 10 μM (Y: yes)) | Y (The compound was found to be cytotoxic (cell count threshold: <70% control) when murine immortalized microglial cells were dosed at 10 μM (Y: yes)) | Y (The compound was found to inhibit phagocytosis (response threshold: <70% control) when murine immortalized microglial cells were dosed at 10 μM (Y: yes)) |  |  | 
Fc1ccc(C(CCCNCC2CCc3[nH]c4ccc(F)cc4c3C2)c2ccc(F)cc2)cc1 (centres unmarked) [MSC1094308] | 3.9 (≈ 1.8 µg/mL) |  |  |  |  | Y (The compound was found to inhibit phagocytosis (response threshold: <70% control) when human immortalized microglial cells were dosed at 10 μM (Y: yes)) |  |  |  | Y (The compound was found to inhibit phagocytosis (response threshold: <70% control) when murine immortalized microglial cells were dosed at 10 μM (Y: yes)) | Y (The compound was found to be cytotoxic (cell count threshold: <70% control) when human immortalized microglial cells were dosed at 10 μM (Y: yes)) | Y (The compound was found to be cytotoxic (cell count threshold: <70% control) when murine immortalized microglial cells were dosed at 10 μM (Y: yes)) | 
CS[C@@]1(C(=O)Nc2ccc3[nH]nc(-c4ccc(OC(C)C)nc4)c3c2)CCN(CC(=O)N2CC=C(c3ccc(-c4ncn(C)n4)cc3)CC2)C1 [MK-8353] | 4.8 (≈ 3.32 µg/mL) | Y (The compound was found to inhibit phagocytosis (response threshold: <70% control) when human immortalized microglial cells were dosed at 10 μM (Y: yes)) |  |  | Y (The compound was found to be cytotoxic (cell count threshold: <70% control) when murine immortalized microglial cells were dosed at 10 μM (Y: yes)) |  |  |  |  |  |  |  | Y (The compound was found to stimulate phagocytosis (response threshold: >150% control) when murine immortalized microglial cells were dosed at 10 μM (Y: yes))
O=C(Nc1ccc2[nH]nc(-c3ccncc3)c2c1)[C@@H]1CCN(CC(=O)N2CCN(c3ccc(-c4ncccn4)cc3)CC2)C1 [SCH772984] | 6.2 (≈ 3.64 µg/mL) | Y (The compound was found to inhibit phagocytosis (response threshold: <70% control) when human immortalized microglial cells were dosed at 10 μM (Y: yes)) |  |  | Y (The compound was found to be cytotoxic (cell count threshold: <70% control) when murine immortalized microglial cells were dosed at 10 μM (Y: yes)) |  |  |  |  |  |  |  | Y (The compound was found to stimulate phagocytosis (response threshold: >150% control) when murine immortalized microglial cells were dosed at 10 μM (Y: yes))
CN(C)C/C=C/C(=O)Nc1cc2c(Nc3ccc(F)c(Cl)c3)ncnc2cc1O[C@H]1CCOC1 [Afatinib] | 117 (≈ 56.7 µg/mL) |  |  |  |  | Y (The compound was found to inhibit phagocytosis (response threshold: <70% control) when human immortalized microglial cells were dosed at 10 μM (Y: yes)) |  |  | Y (The compound was found to be cytotoxic (cell count threshold: <70% control) when murine immortalized microglial cells were dosed at 10 μM (Y: yes)) | Y (The compound was found to inhibit phagocytosis (response threshold: <70% control) when murine immortalized microglial cells were dosed at 10 μM (Y: yes)) |  |  | 
